Results on one compound are retold here after patent EP2924040A1, “2-Amino-1-(o-tolyl)pyrrolo[3,2-b]quinoxaline-3-carboxamide derivates” (Universität Zürich, priority 2014, dated 2015).

Holding throughout (type): cell-based
For one assay, the system named is HT-29. Description: Cell culture and GI50 determination (resazurin). The conditions noted are these: Homo sapiens; HT-29, resazurin. As for the experimental part:
(§1) MDA-MB-231, HT-29, KM12, HOP-92 and A498 cells were plated at 10,000 cells per well (100 µL per well) in 96-well culture dishes and allowed to incubate for 24 h. The old media was removed, the cells were washed with PBS (phosphate-buffered saline) and fresh media was added. A 5 mmol/L solution of inhibitor (in 100% DMSO) was serially diluted in the culture media (12 different concentrations were used) and allowed to incubate for 72 h (MDA-MB-231) or 48h (A498). Control cells were treated with the same DMSO concentrations. After the incubation period the media was once more removed and the cells were washed with PBS to then be incubated with fresh media containing 86 nmol/L resazurin. After 3 hours, the fluorescence was quantified using a fluorescence microplate reader (Biotek, FLx800™) at the respective excitation and emission wavelength of 560 and 590 nm. Resazurin becomes fluorescent under mitochondrial reduction and its emission directly correlates with the metabolic stability of the cells. The measured fluorescence values were corrected from the control samples containing DMSO and GI50 values were determined by plotting the fraction of metabolically active cells against the log of the drug concentration. All measurements were performed at least in triplicate.

The subject of another assay is K562. Put plainly: Cell culture and GI50 determination (resazurin). The conditions noted are these: Homo sapiens, K562, 48 hour incubation. As for the experimental part:
(§2) MDA-MB-231 (breast cancer) and KM12 (colon cancer) cells obtained from the UZH Cancer Institute, HOP-92 (lung cancer) cells purchased from the National Cancer Institute (NCl) and A498 (kidney cancer) cells obtained from Prof. Krek (Institute of Cell Biology, ETH Zurich) were cultured in Dulbecco's modified Eagle's medium (DMEM) supplemented with 10% (v/v) fetal bovine serum. K562 leukemia cells obtained from Dr. Silvio Hemmi (Institute of Molecular Life Sciences, UZH) were cultured using RPMI medium supplemented with 5% (v/v) fetal bovine serum. All the media was additionally supplemented with 100 units/mL of penicillin, 100µg/mL of streptomycin, 4.5 g/L glucose, 0.11g/L sodium pyrubate and 2mM glutamine and the cells were grown at 37 °C in 5% CO2 atmosphere with 80% relative humidity.
In the case of K-562 leukemia cells, these were seeded at a density of 20,000 cells per well in 100µL of RMPI media in a 96 well microtiter plates. […] After 48 hour incubation, cell viability was assessed by measuring the ability of the cells to process resazurin. Resazurin was added to every well to obtain a final concentration of 86nmol/L, and after 3 hours, the fluorescence was quantified using a fluorescence microplate reader (Biotek, FLx800™) at the respective excitation and emission wavelength of 560 and 590 nm as described above. […]

Another assay relates to MDA-MB-231. Put plainly: Cell culture and GI50 determination (resazurin). To be noted: Homo sapiens, MDA-MB-231, 72 h incubation. As for the experimental part:
as §2, §1

The next assay deals with HOP-92. Put plainly: Cell culture and GI50 determination (resazurin). To be noted: Homo sapiens; HOP-92, resazurin. How it is done:
as §2, §1

A further assay deals with KM12. Description: Cell culture and GI50 determination (resazurin). To be noted: Homo sapiens. How it is done:
as §2, §1

The next assay has as its system A498. Description: Cell culture and GI50 determination (resazurin). To be noted: Homo sapiens, A498, 48h incubation. How it is done: as §2, §1
Assay [1] has as its system NCI-60 panel of cancer cell-lines. Description: NCI-60 DTP Human Tumor Cell Line Screen at 5 doses (whole panel). To be noted: SNB-75, K562, A498, LOX IMV1, HS 578T and MDA-MB-231 among others (Fig. 5). As for the experimental part: Compound 2 was screened by the National Cancer Institute (NCI) at 5 doses on the NCI-60 DTP Human Tumor Cell Line Screen.
Compound 2 was further screened against cancer cell lines by the National Cancer Institute (NCI). This screen was performed as per the description provided at http://dtp.nci.nih.gov/branches/btb/ivclsp.html. "The NCI 60 panel cell lines were grown in RPMI 1640 medium supplemented with 5% (v/v) fetal bovine serum and 2 mM L-glutamine at 37° C, 5 % CO2, 95 % air and 100 % relative humidity. Cells were seeded at 5,000 - 40,000 cells/well depending on their doubling time. After 24 hours of incubation, DMSO stock solutions of the compounds (400X) were added at 5 different concentrations (in […] serial dilutions). After 48 h cells were fixed with trichloroacetic acid (10% or 16% final concentration for adherent cells and suspension cells respectively) and incubated for 60 minutes at 4°C. […] The bound stain was solubilized with 10mM trizma base and determined by absorbance measurement on an automated plate reader at a wavelength of 515 nm. The percentage growth inhibition was calculated as followed, being Tz time zero measurements, C control growth measurements and Ti test growth experiments in the present of the drug. […]
Three dose response parameters were calculated for each cell line. […] Total growth inhibition (TGI) is calculated from Ti = Tz. […]

In the case of `Cc1ccc(O)cc1-n1c(N)c(C(N)=O)c2nc3ccccc3nc21` [Compound 2, 2-Amino-1-(5-hydroxy-2-methylphenyl)-1H-pyrrolo[2,3-b]quinoxaline-3-carboxamide], the GI50 with HT-29 amounted to 4590 nM; in the assay with K562 it was 1050 nM; in the assay with MDA-MB-231 it was 2640 nM; with HOP-92 it was 490 nM; in the assay with KM12, 1550 nM; in the assay on A498, 5880 nM. In addition, in assay [1], the “potency (GI50 and/or TGI and/or LC50) relative to select cell-lines” value is listed as “high potency”.
